{"source": "patent EP4623911A1", "about": "“PI4KB INHIBITORS FOR THE TREATMENT OF FATTY LIVER DISEASE” (ETH Zurich, priority 2024, dated 2025)", "key": {"[1]": {"test": "Indirect calorimetry in HFD-fed mice", "type": "in vivo", "details": "HFD mixed with UCB9608 (5 mg/kg) for 3 weeks, vs DMSO", "procedure": "8-10 weeks old C57BL/6N male mice were fed on HFD mixing with DMSO or UCB9608 (5 mg/kg) for 3 weeks before indirect calorimetry measurements were performed with Phenomaster (TSE systems) according to the manufacturer's instructions. Animals were single caged and adapted to the metabolic cage for 48h prior to metabolic recording. The energy expenditure between both groups was analyzed via ANCOVA method and RER was analyzed via two-way ANOVA method."}, "ATGL": {"test_system": "ATGL", "test": "ATGL protein quantification via immunoblot in HEK293T cell type", "type": "cell-based, human", "details": "Golgi Ptdlns4P depleted by UCB9608, then glucose deprivation", "procedure": "HEK293T and HEK293-AAV cell types were cultured in DMEM (high glucose) with 10% FBS and 1% Pen/Strep. HEK293-AAV cell type was used for imaging whereas HEK293T cells were adopted for the rest of the work. To overexpress EGFP-P4M, EGFP-SACM1L, EGFP-SACM1LK2A, ATGL-FLAG, ATGL-HA, ATGLK0-HA and FBXW8-FLAG in the HEK cells, Lipofectamine 2000 was used to deliver these plasmids for 24 h expression at 60-80% cell confluence according to the manufacturer's instructions, followed by specific treatments based on experimental designs. To image LDs abundance, HEK293-AAV cell type was induced by 200 µM oleic acid (OA, 01008 from Sigma) conjugated to bovine serum albumin (BSA, A6003 from Sigma) to generate LDs for 24 h prior to 4% PFA fixation. Afterwards, cells were stained by BODIPY 493/503 and Hoechst 33342 for LDs and nuclei labelling, respectively. In other conditions, HEK cells were not treated with OA containing medium. […]\n(§1) Adipose depots, liver pieces, differentiated iBAs, HepG2, HEK293T and HEK293-AAV cell types were homogenized in RIPA buffer (50 mM Tris-HCl pH 7.4, 150 mM NaCl, 2 mM EDTA, 1.0% Triton X100, 0.5% sodium deoxycholate) with protease inhibitors (Complete, Roche) and phosphatase inhibitors (Halt phosphatase inhibitor cocktail, ThermoFisher). […] The concentration of WCE was determined by DC Protein Assay (Bio-Rad). […]"}, "[2]": {"test_system": "mouse model of hepatic steatosis", "test": "HFD-induced hepatic steatosis (NAFLD) mouse model treated with UCB9608", "type": "in vivo, mice", "procedure": "Male mice were used for NAFLD induction via feeding on HFD. ROSA26-LSL-spCas9 mice were injected with AAV-U6-Cu/7 gRNAs-TBG-Cre and AAV-U6-Fbxw8 gRNAs-TBG-Cre virus pools at a dose of 3×10^11 genome copies/mouse and fed in HFD for 12 weeks and livers were harvested after 6 hours fasting. To study PI4KB in NAFLD progression, male ROSA26-LSL-spCas9 mice were fed in HFD for 12 weeks to induce fatty liver before induction of hepatocyte specific depletion of PI4KB via intravenous administration of AAV8. After another 8 weeks, mice were dissected to harvest liver after 6 hours fasting. Likewise, male C57BL/6N wild-type mice and liver specific Atgl knockout mice (AtglLKO) were challenged with HFD for 12 weeks to induce fatty liver prior to administration of UCB9608 mixed in HFD (5 mg/kg) for another 8 weeks. Then the mice were dissected to harvest tissues and sample blood after 6 hours fasting Atgl floxed mice (The Jackson Lab strain) were crossed with Albumin-Cre (The Jackson Lab strain) and Adip-CreERT2 strains to obtain Alb-Atgfl^fl/fl and AdipcreERT2-Atgl^fl/fl mice (Sitnick,M.T. et al, Diabetes 62, (2013)), which deplete ATGL protein in the liver and the adipose depots (induced after tamoxifen gavage), respectively. […]\nas §1\nPlasma collected from mice under different conditions was used to determine levels of lipolysis and liver injury. FFA levels were measured via NEFA assay kit (Wako NEFA kit). TG levels were determined via TG assay kit (Roche Trig/GB reagent). […] The absorbance was monitored using Synergy Gen5 Platereader.\nWeight of liver pieces (50-100 mg) was recorded before homogenization by 1 mL isopropanol per 50 mg tissue. […]"}}}
{"smiles": "COc1ccc(NC(=O)N2CCN(c3nc(N)nc4c3cnn4C)[C@@H](C)C2)c(C)c1", "note": "[UCB9608]", "values": [{"measurement": "energy expenditure", "setting": "[1]", "value": "higher"}, {"measurement": "ATGL response to glucose deprivation", "setting": "ATGL", "value": "loss of ATGL regulation"}, {"measurement": "hepatic steatosis (hepatic TG levels)", "setting": "[2]; HFD 12 weeks, then UCB9608 in HFD (5 mg/kg) 8 weeks, requires ATGL in the liver", "value": "substantially attenuated"}, {"measurement": "ATGL protein levels in the iBAT, gWAT and liver", "setting": "[2]; UCB9608- vs DMSO-treated HFD mice", "value": "significantly greater"}, {"measurement": "plasma FFA levels", "setting": "[2]; wild-type mice, HFD 12 weeks, then UCB9608 in HFD (5 mg/kg) 8 weeks, vs DMSO", "value": "significantly increased"}]}
